Data: patent US20220016241A1, “COMPOSITIONS AND METHODS FOR REDUCING ANTIGEN-SPECIFIC IMMUNOGENICITY” (The Research Foundation for The State University of New York, priority 2013, published 2022)

Key:
anti-GAA total titers = experiment: OPLS-GAA sequential administration study; assay type: in vivo, Mice; conditions: for Total titers (ELISA), week 11 after re-challenge: rechallenge 4 weekly 1 μg rhGAA; for Total titers (ELISA), week 6: 4 weekly sc
Method: This examples describes OPLS-GAA sequential administration study. To determine if OPLS can exert its immunomodulatory effects on the immune response to GAA when the two are administered in separate spaced injections, at the same injection site the following experiments were carried out. Mice (n=6 animals/group) were immunized with 4 weekly sc injections as follows. One group of animals received one single combined injection of 5 mg OPLS and 1 μg rhGAA(100 μl volume). Recombinant human GAA was produced by Creative Biomart. The second group received one injection of 5 mg OPLS (100 μl volume) then after a 5 minute wait they received a second injection of 1 μg rhGAA in sterile TRIS (100 μl volume) in the same injection site. The final control group received one injection of sterile TRIS (100 μl volume) then after a 5 minute wait they received a second injection of 1 μg rhGAA in sterile TRIS (100 μl volume) in the same injection site. After a two week rest period a saphenous blood sample was collected. All of the mice were then rechallenged with 4 weekly injections of 1 μg of rhGAA in 100 μl sterile TRIS (one single injection). Analysis was done by ELISA for total titers. The mean free GAA after 6 weeks was 3135±910, When co-administered, the GAA was 787±155, and when administered separately (sequentially), the GAA was 926±202 (FIG. 26). After re-challenge, terminal sampling was done at week 11. The mean free GAA after 11 weeks was 8775±2363, When co-administered, the GAA was 895±335, and when administered separately (sequentially), the GAA was 1884±761. […] Either administration method was able to induce a hypo-responsiveness towards GAA.

anti-FVIII titers = experiment: Tolerance induction and FVIII re-challenge study (FVIII, FVIII plus OPLS, FVIII plus Dexamethasone); assay type: in vivo, HA mice; conditions: co-administered sc with 1 μg FVIII, 4 weekly
Method: Tolerance induction studies in HA mice: Breeding pairs of exon 16 knockout transgenic hemophilic mice (HA) were used. All animal studies were conducted in accordance with an approved protocol by the Institutional Animal Use and Care Committee at the University at Buffalo, State University of New York.
Immunization and re-challenge schedule: To delineate whether OPLS mediated reduction of antibody titer is due to immune tolerance or immune suppression, we performed re-challenge experiments. Forty HA mice were pre-treated with FVIII, FVIII plus OPLS or FVIII plus Dexamethasone once-a-week for four consecutive weeks by sc injections of endotoxin free formulation of 1 μg of FVIII alone or with 5 mg OPLS or 200 ng Dexamethasone (Dex) as shown in FIG. 32. The injections were prepared in TRIS buffers containing 25 mM TRIS and 150 mM NaCl at pH 7.5. For OPLS containing formulations, OPLS was added to the buffer and the pH adjusted to 7.5. The appropriate amount of FVIII was added immediately before injection to prevent complexation between FVIII and OPLS pre-injection. […] Total anti-FVIII titer levels were measured by ELISA.
Statistics: Non-parametric one-way ANOVA with Tukey's post hoc analysis was used for the analysis of titer values where appropriate. Student t-test was used for comparing mean intensity of fluorescence (MIF) for flow cytomerty data. […]

TGF-β = experiment: Cytokine profile of BMDCs in vitro, TGF-β ELISA; assay type: cell-based, HA mice; conditions: 1 μg/ml FVIII with 0-50 mM OPLS, 48 hours, n=4
Method: (§1) Generation of bone marrow derived dendritic cells (BMDC): Bone marrow was isolated from 6 to 8 week old naïve HA. Briefly, bone marrow was cultured in RPMI media supplemented with […] (low endotoxin), 2-mercaptoethanol, Pen/Strep and […] GMCSF. Media was changed on days 3, 6 and 8 of culture and DCs were used on day 9. BMDC are then harvested and used as needed. To verify the differentiation of bone marrow cells into DCs, CD11c surface expression was confirmed by flow cytometry using anti-CD11c-FITC antibody with appropriate isotope controls.
(§2) Effects of OPLS on cytokine profile of BMDCs in vitro: The effects of OPLS on cytokine secretion by dendritic cells were investigated. On day 9 BMDCs, generated as above, were treated with FVIII as an antigen in the presence of increasing dose of OPLS. Changes in production of pro-inflammatory cytokines TNF-α and IL12p70 as well as the regulatory cytokine TGF-β were monitored as a function of dose. BMDCs were exposed to 1 μg/ml FVIII with increasing dose of OPLS (0, 0.5, 1, 10, 25, 50 mM). 1 M stock of OPLS was prepared by adding the appropriate amount of OPLS directly to RPMI media, and pH was adjusted using sterile 3N and 1N NaOH. […] TGF-β, TNF-α and IL-12p70 concentrations were determined using standard ELISA (R&D System Inc. Minneapolis, Minn., USA or Invitrogen […], Calif.).

Humira = experiment: Binding of OPLS to Humira
Method: The binding of OPLS to several therapeutic proteins was evaluated using fluorescence spectroscopy (FIG. 2). The fluorescence emission reduced as the concentration of OPLS was increased. The fluorescence intensity changes were highest for FVIII compared to GAA and OVA. […] The high affinity binding for FVIII is consistent with the existence of a putative lipid binding domain.
As shown in FIG. 6(d), anti-Humira antibody titers were lower in mice that were co-administered OPLS (5 mg dose) and Humira® ([…]) via the s.c. route than in those administered Humira® alone ([…]) (also via the s.c. route) after 4 weekly injection followed by a 2 weeks washout period. Titer values were obtained by classical sandwitch ELISA were the plates was coated with Humira before incubation with dilutions with plasma samples, anti-Humira antibodies were detected with a rat anti-mouse-HRP conjugated antibodies. […] It is highly doubtful that the weak binding seen here is “shielding” an immunologic epitope.

TNF-α = experiment: Cytokine profile of BMDCs in vitro, TNF-α ELISA; assay type: cell-based, HA mice; conditions: 1 μg/ml FVIII with 50 mM OPLS, 48 hours, n=4
Method: as §1, §2

SMILES: N[C@@H](COP(=O)(O)O)C(=O)O [OPLS, O-Phospho-L-Serine]
- Total titers (ELISA), week 11 after re-challenge (anti-GAA total titers; co-administered with 5 mg OPLS): 895±335
- Total titers (ELISA), week 6 (anti-GAA total titers; co-administered: single combined injection 5 mg OPLS and 1 μg rhGAA): 787±155
- Total titers (ELISA), week 11 after re-challenge (anti-GAA total titers; sequential, 5 mg OPLS 5 min before GAA): 1884±761
- Total titers (ELISA), week 6 (anti-GAA total titers; sequential: 5 mg OPLS then 1 μg rhGAA 5 min later, same site): 926±202
- Anti-FVIII antibody response during the pre-treatment stage (anti-FVIII titers): reduced
- TGF-β production by BMDC (TGF-β): dose dependent increase
- Binding between OPLS and Humira (Humira): weak binding
- TNF-α production by BMDC (TNF-α): substantial reduction
